Test results taken from patent US10875871B2, “Photosensitizer” (Tampereen Korkeakoulusäätiö sr, priority 2016, dated 2020).
“Also recorded” adds a separate entry of the source.

Key:
[1] = Leeching test of dyed paper in PBS buffer; assay type: physicochemical
Experimental: Stability of the dye Pc4 against was tested with PBS buffer pH 7.2. The absorbance and emission of PBS buffer incubated with dye papers were measured for checking the leeching (FIGS. 9a and b). […] Absorbance and emission of PBS buffer from each vial was measured after 1 h to check the leeching of dyes from papers.

A. baylyi = experiment: Antimicrobial inactivation under consumer LED lamp; assay type: cell-based, Acinetobacter baylyi; conditions: dyed filter paper, 1 h illumination from LED lamp
Experimental: The antimicrobial efficiency of the dye was confirmed by CFU method using microbes E. coli MG1655 (E. coli Genetic Resources at Yale) and A. baylyi ADP1 (ATCC 33305). […] […] UV-IR radiations were cut off using a combination of KG3 band pass filter (315-750 nm transmittance) and ? c-17 yellow filter (transmittance >485 nm). Similarly, light control samples were prepared by depositing microbial medium over dyed and un-dyed samples by covering microplate with aluminum foil for 1 h at room temperature. After 1 h of illumination or incubation, the microbes were extracted with LB medium (10 g/l tryptone, 5 g/l yeast extract, 5 g/l NaCl) (975 μl) and serial dilutions were made from each extract. The dilutions were then plated on LA agar plates and incubated at 30° C. overnight. The number of colonies grown on the agar plate was counted and CFUs per milliliter were calculated from it.
(§1) The spectrum of light emitted from the lamp prior to the experiments was measured. […] In addition, the power density of the lamp was also measured at different distances. […] The absorptance of phthalocyanine Pc4 and porphyrin ZnPf papers were calculated from reflectance and transmittance measurement of dyed papers using integrating sphere (IS) detector. The absorptance profiles were very similar to the absorbance measurement in solution. […]

E. coli = experiment: Antimicrobial inactivation under consumer LED lamp; assay type: cell-based, Escherichia coli; conditions: dyed filter paper, 1 h illumination from LED lamp
Experimental: (§2) The antimicrobial efficiency of the dye was confirmed by CFU method using microbes E. coli MG1655 (E. coli Genetic Resources at Yale) and A. baylyi ADP1 (ATCC 33305). […] The microplate was illuminated in the solar simulator for 1 hour. UV-IR radiations were cut off using a combination of KG3 band pass filter (315-750 nm transmittance) and ? c-17 yellow filter (transmittance >485 nm). Similarly, light control samples were prepared by depositing microbial medium over dyed and un-dyed samples by covering microplate with aluminum foil for 1 h at room temperature. After 1 h of illumination or incubation, the microbes were extracted with LB medium (10 g/l tryptone, 5 g/l yeast extract, 5 g/l NaCl) (975 μl) and serial dilutions were made from each extract. The dilutions were then plated on LA agar plates and incubated at 30° C. overnight. The number of colonies grown on the agar plate was counted and CFUs per milliliter were calculated from it.
as §1

[2] = system: Escherichia coli (XL1-Blue) carrying plasmid pBAV1C-T5-lux; experiment: Screening test with bioluminescent E. coli on dyed filter paper discs; assay type: cell-based; conditions: dyed filter paper discs on LA agar, 1 hour illumination, 18 mWcm−2
Experimental: (§3) The efficiency of dyes (Pc1, Pc2, Pc3, Pc4) was screened by conducting antimicrobial test with bioluminescent bacterial strains Escherichia coli (XL1-Blue, Stratagene, USA) and Acinetobacter baylyi ADP1 (DSM 24193) carrying plasmid pBAV1C-T5-lux (the plasmid is chloramphenicol resistance derivate of the pBAV1K-T5-lux plasmid (Addgene #55800). The filter papers (12.25 cm^2) were soaked in respective dye solution (0.9 mg dye in 200 μl solvent) and allowed to dry on it. After drying, three circular discs (0.5 cm diameter) were cut from each filter paper and pasted on the LA agar (15 g/l agar, 10 g/l tryptone, 5 g/l yeast extract, 5 g/l NaCl) gel plate in such a way that each row corresponds to each dye. A circular dark screen of 0.3 cm height with a square hole in the center was placed over the agar plate. The square hole was cut in such a way that, one column which includes all the four dyes will be under the dark area of the screen while the two remaining columns will be inside the square hole. Two filters [KG3 band pass filter (315-750 nm transmittance) and ? […] Luminescence arising from the setup was recorded (Xenogen IVIS 100) before the microbial deposition on the filter paper discs. […] Luminescence of the agar plate before and after illumination of 1 hour was measured and the efficient dye which produces less luminescence was screened out from the set.

A. baylyi ADP1 = experiment: Colony forming unit (CFU) method, solar simulator; assay type: cell-based, Acinetobacter baylyi; conditions: for Colony counts after incubation / CFU/ml / Colony counts after incubation (Average) / Colony counts after incubation (Duplicate): Acinetobacter baylyi
Experimental: as §2

[3] = system: Acinetobacter baylyi ADP1 carrying plasmid pBAV1C-T5-lux; experiment: Screening test with bioluminescent Acinetobacter baylyi on dyed filter paper discs; assay type: cell-based; conditions: dyed filter paper discs on LA agar, 1 hour illumination, 18 mWcm−2
Experimental: as §3

E. coli MG1655 = experiment: Colony forming unit (CFU) method, solar simulator; assay type: cell-based, Escherichia coli; conditions: for Colony counts after incubation / CFU/ml / Colony counts after incubation (Average) / Colony counts after incubation (Duplicate): E. Coli
Experimental: as §2

[4] = Pc4 filter paper-Dark 1 h, dilution factor 2.50E−03, 0.1 ml plated
[5] = Pc4 filter paper-Dark 1 h, dilution factor 2.50E−04, 0.1 ml plated
[6] = Pc4 filter paper-Dark 1 h, dilution factor 2.50E−05, 0.1 ml plated
[7] = Pc4 filter paper-Dark 1 h, dilution factor 2.50E−06, 0.1 ml plated
[8] = Pc4 filter paper-Dark 1 h, dilution factor 2.50E−07, 0.1 ml plated
[9] = illuminated Pc4 filter paper 1 h, dilution factor 2.50E−03, 0.1 ml plated
[10] = illuminated Pc4 filter paper 1 h, dilution factor 2.50E−04, 0.1 ml plated
[11] = illuminated Pc4 filter paper 1 h, dilution factor 2.50E−05, 0.1 ml plated
[12] = illuminated Pc4 filter paper 1 h, dilution factor 2.50E−06, 0.1 ml plated
[13] = illuminated Pc4 filter paper 1 h, dilution factor 2.50E−07, 0.1 ml plated
[14] = illuminated Pc4 filter paper 1 h, dilution factor 2.50E−02, 0.1 ml plated

Q: For C[n+]1ccc(-c2c3nc(c(-c4cc[n+](C)cc4)c4ccc([nH]4)c(-c4cc[n+](C)cc4)c4nc(c(-c5cc[n+](C)cc5)c5ccc2[nH]5)C=C4)C=C3)cc1.I.I.I.I.[Zn+2] [ZnPf, Zn(II)tetrakis[methylpyridinium iodide]porphyrin, reference compound], which “absorbance of PBS extract of dyed paper (leeching)” value ([1]; 28 mg dyed paper in 4 ml PBS pH 7.2, 1 hour, room temperature) is on record?
A: strong absorption peak at 422 nm

Q: And the “emission of PBS extract of dyed paper (leeching)” value ([1]; PBS pH 7.2, excited at 422 nm, after 1 hour of incubation)?
A: intense emission peak

Q: And the inactivation of microorganisms (A. baylyi)?
A: complete inactivation

Q: And the inactivation of microorganisms (E. coli)?
A: complete inactivation

Q: Which “efficiency of dye (luminescence after illumination)” value [2] does the source give for “{4,4′,4″,4″-(29H,31H-phthalocyanine-1(4),8(11),15(18),22(25)-tetrayl-κ 4N29,N30,N31,N32)tetrakis [1-methylpyridiniumato(2-)]}zinc(4+) tetraiodide [Pc4]” here?
A: most efficient

Q: What about the “absorbance of PBS extract of dyed paper (leeching)” value ([1]; PBS pH 7.2, 20 h of incubation at room temperature) of the same compound?
A: did not show any peak corresponding to the dye

Q: And the “emission of PBS extract of dyed paper (leeching)” value ([1]; PBS pH 7.2, excitation at 694 nm)?
A: very faint emission peak of negligible intensity

Q: And the “stability against leeching from paper” value ([1]; dye impregnated on filter paper, PBS buffer pH 7.2)?
A: exceptionally high stability against leeching; also recorded: does not release back to solution

Q: What about the inactivation of microorganisms (A. baylyi) of the same compound?
A: complete inactivation

Q: And the inactivation of microorganisms (E. coli)?
A: complete inactivation

Q: And the “microbial growth on plates” value (A. baylyi ADP1; A. baylyi, illuminated Pc4 filter paper, 1 hour solar simulator)?
A: No microbial growth

Q: What about the “Colony counts after incubation” value (A. baylyi ADP1; [4]) of the same compound?
A: Too many to count

Q: What about the “Colony counts after incubation” value (A. baylyi ADP1; [5]) of the same compound?
A: Too many to count

Q: What about the CFU/ml (A. baylyi ADP1; [6]) of the same compound?
A: 7.06E+07 CFU/ml

Q: What about the “Colony counts after incubation” value (A. baylyi ADP1; [6]) of the same compound?
A: 175

Q: What about the “Colony counts after incubation (Average)” value (A. baylyi ADP1; [6]) of the same compound?
A: 176.5

Q: What about the “Colony counts after incubation (Duplicate)” value (“Colony counts … (Duplicate)” for short) (A. baylyi ADP1; [6]) of the same compound?
A: 178

Q: What about the CFU/ml (A. baylyi ADP1; [7]) of the same compound?
A: 5.20E+07 CFU/ml

Q: And the “Colony counts after incubation” value (A. baylyi ADP1; [7])?
A: 22

Q: What about the “Colony counts after incubation (Average)” value (A. baylyi ADP1; [7]) of the same compound?
A: 13

Q: What about the “Colony counts … (Duplicate)” value (A. baylyi ADP1; [7]) of the same compound?
A: 4

Q: What about the CFU/ml (A. baylyi ADP1; [8]) of the same compound?
A: 1.40E+08 CFU/ml

Q: And the “Colony counts after incubation” value (A. baylyi ADP1; [8])?
A: 6

Q: What about the “Colony counts after incubation (Average)” value (A. baylyi ADP1; [8]) of the same compound?
A: 3.5

Q: And the “Colony counts … (Duplicate)” value (A. baylyi ADP1; [8])?
A: 1

Q: And the CFU/ml (A. baylyi ADP1; [9])?
A: 0.00E+00 CFU/ml

Q: And the “Colony counts after incubation” value (A. baylyi ADP1; [9])?
A: 0

Q: What about the “Colony counts after incubation (Average)” value (A. baylyi ADP1; [9]) of the same compound?
A: 0

Q: What about the “Colony counts … (Duplicate)” value (A. baylyi ADP1; [9]) of the same compound?
A: 0

Q: What about the CFU/ml (A. baylyi ADP1; [10]) of the same compound?
A: 0.00E+00 CFU/ml

Q: And the “Colony counts after incubation” value (A. baylyi ADP1; [10])?
A: 0

Q: And the “Colony counts after incubation (Average)” value (A. baylyi ADP1; [10])?
A: 0

Q: And the “Colony counts … (Duplicate)” value (A. baylyi ADP1; [10])?
A: 0

Q: And the CFU/ml (A. baylyi ADP1; [11])?
A: 0.00E+00 CFU/ml

Q: And the “Colony counts after incubation” value (A. baylyi ADP1; [11])?
A: 0

Q: And the “Colony counts after incubation (Average)” value (A. baylyi ADP1; [11])?
A: 0

Q: What about the “Colony counts … (Duplicate)” value (A. baylyi ADP1; [11]) of the same compound?
A: 0

Q: And the CFU/ml (A. baylyi ADP1; [12])?
A: 0.00E+00 CFU/ml

Q: What about the “Colony counts after incubation” value (A. baylyi ADP1; [12]) of the same compound?
A: 0

Q: And the “Colony counts after incubation (Average)” value (A. baylyi ADP1; [12])?
A: 0

Q: What about the “Colony counts … (Duplicate)” value (A. baylyi ADP1; [12]) of the same compound?
A: 0

Q: What about the CFU/ml (A. baylyi ADP1; [13]) of the same compound?
A: 0.00E+00 CFU/ml

Q: What about the “Colony counts after incubation” value (A. baylyi ADP1; [13]) of the same compound?
A: 0

Q: What about the “Colony counts after incubation (Average)” value (A. baylyi ADP1; [13]) of the same compound?
A: 0

Q: And the “Colony counts … (Duplicate)” value (A. baylyi ADP1; [13])?
A: 0

Q: What about the “efficiency of dye (luminescence after illumination)” value [3] of the same compound?
A: most efficient

Q: And the “Colony counts after incubation” value (E. coli MG1655; Pc4 filter paper-Dark 1 h, dilution factor 2.50E−02, 0.1 ml plated)?
A: Too many to count

Q: And the “Colony counts after incubation” value (E. coli MG1655; [4])?
A: Too many to count

Q: And the “Colony counts after incubation” value (E. coli MG1655; [5])?
A: Too many to count

Q: What about the “Colony counts after incubation” value (E. coli MG1655; [6]) of the same compound?
A: Too many to count

Q: What about the CFU/ml (E. coli MG1655; [7]) of the same compound?
A: 1.51E+09 CFU/ml

Q: What about the “Colony counts after incubation” value (E. coli MG1655; [7]) of the same compound?
A: 327

Q: What about the “Colony counts after incubation (Average)” value (E. coli MG1655; [7]) of the same compound?
A: 378

Q: And the “Colony counts … (Duplicate)” value (E. coli MG1655; [7])?
A: 429

Q: What about the CFU/ml (E. coli MG1655; [14]) of the same compound?
A: 0.00E+00 CFU/ml

Q: And the “Colony counts after incubation” value (E. coli MG1655; [14])?
A: 0

Q: And the “Colony counts after incubation (Average)” value (E. coli MG1655; [14])?
A: 0

Q: And the “Colony counts … (Duplicate)” value (E. coli MG1655; [14])?
A: 0

Q: And the CFU/ml (E. coli MG1655; [9])?
A: 0.00E+00 CFU/ml

Q: And the “Colony counts after incubation” value (E. coli MG1655; [9])?
A: 0

Q: What about the “Colony counts after incubation (Average)” value (E. coli MG1655; [9]) of the same compound?
A: 0

Q: And the “Colony counts … (Duplicate)” value (E. coli MG1655; [9])?
A: 0

Q: And the CFU/ml (E. coli MG1655; [10])?
A: 0.00E+00 CFU/ml

Q: And the “Colony counts after incubation” value (E. coli MG1655; [10])?
A: 0

Q: What about the “Colony counts after incubation (Average)” value (E. coli MG1655; [10]) of the same compound?
A: 0

Q: And the “Colony counts … (Duplicate)” value (E. coli MG1655; [10])?
A: 0

Q: What about the CFU/ml (E. coli MG1655; [11]) of the same compound?
A: 0.00E+00 CFU/ml

Q: And the “Colony counts after incubation” value (E. coli MG1655; [11])?
A: 0

Q: And the “Colony counts after incubation (Average)” value (E. coli MG1655; [11])?
A: 0

Q: And the “Colony counts … (Duplicate)” value (E. coli MG1655; [11])?
A: 0

Q: And the CFU/ml (E. coli MG1655; [12])?
A: 0.00E+00 CFU/ml

Q: What about the “Colony counts after incubation” value (E. coli MG1655; [12]) of the same compound?
A: 0

Q: What about the “Colony counts after incubation (Average)” value (E. coli MG1655; [12]) of the same compound?
A: 0

Q: What about the “Colony counts … (Duplicate)” value (E. coli MG1655; [12]) of the same compound?
A: 0

Q: And the “microbial growth on plates” value (E. coli MG1655; E. coli, illuminated Pc4 filter paper, 1 hour solar simulator)?
A: No microbial growth
